Measurements: patent US10501479B2, “Benzenesulfonyl-asymmetric ureas and medical uses thereof” (HELSINN HEALTHCARE SA, priority 2016, dated 2019)
Where two headings read alike, the source gives them in different places.

Legend:
[1] = molecular target: T1, recombinant human ghrelin receptor (HEK293/GRLN) (Homo sapiens, UniProt Q92847); assay: Ghrelin inverse agonist potency (EC50) with IP-1 (IP-One HTRF) assay; type: cell-based; conditions: inverse agonist potency, IP-1 assay; read-out: EC50 (Activity)
T1 construct: expressed in transfected cells
Method: Evaluation of Ghrelin Inverse Agonist Potency (EC50) with IP-1 Assay:
HEK293 cells stably expressing recombinant human ghrelin receptor (HEK293/GRLN) were used in the IP-One HTRF assay. One day before the test, cells were seeded at a density of 1.5×10^4/well in a Matrigel® coated 384-well plate with 30 μL of complete Dulbecco's Modified Eagle's Medium and incubated at 37° C. in 5% CO2 for 18-22 hours. On the test day, the medium was removed by centrifugation at 600 rpm for 30 seconds, and 20 μL of stimulation buffer containing 1x tested compound was added with Bravo (Agilent technologies). The plate was then incubated at 37° C. 5% CO2 for 1 hour. After the incubation, 5 μL of IP1-d2 and 5 μL of Tb-Cryp were added to all wells using multidrop Combi(Thermo). After additional incubation at room temperature for 1 hour, the plates were read on Envision with 620 and 665 (Perkin Elmer).

[2] = molecular target: T2, GHSR-1a (HEK293/GHSR1a cell line) (Homo sapiens, UniProt Q92847); assay: Ghrelin antagonist potency (IC50) with calcium FLIPR assay, ghrelin 10 nM; type: cell-based
T2 construct: expressed in transfected cells; host or cells: HEK293/GHSR1a cell line
Method: Evaluation of Ghrelin Agonist (EC50) and Antagonist Potency (IC50) with Calcium FLIPR Assay:
The intracellular calcium assay was carried out in a 384-well format FLIPR™ (Molecular Device) HEK293/GHSR1a cell line. Cells were seeded 24 hr prior to the experiments at an optimal density per well. Preincubation with selected calcium dye lasted for 30-60 min at room temperature or 37° C. Test compounds, dissolved in DMSO, were added at the appropriate time and incubated for 15 min followed by the addition of ghrelin with FlexStation or FLIPR. Relative fluorescence was monitored by the FLIPR™ Molecular Device. EC50 and IC50 values were estimated from dose-response data using GraphPad Prism software. To check for GHSR-1a agonism, the compound was added at t=20 sec. and the calcium response was followed for 2 minutes. To check for GHSR-1a antagonism, the compound and Ghrelin (10 nM) were added to the cells at t=20 sec. and the calcium response was measured for 2 minutes. The potency of the antagonist was calculated by its ability to reduce the ghrelin response. Dose-response curves were made for relevant antagonists.

[3] = ghrelin antagonist potency, read-out: IC50 (Activity)
[4] = HEK293/GHSR1a, ghrelin 10 nM, read-out: Activity IC50 (ghrelin antagonist potency)

T1 sequence (Q92847 whole entry): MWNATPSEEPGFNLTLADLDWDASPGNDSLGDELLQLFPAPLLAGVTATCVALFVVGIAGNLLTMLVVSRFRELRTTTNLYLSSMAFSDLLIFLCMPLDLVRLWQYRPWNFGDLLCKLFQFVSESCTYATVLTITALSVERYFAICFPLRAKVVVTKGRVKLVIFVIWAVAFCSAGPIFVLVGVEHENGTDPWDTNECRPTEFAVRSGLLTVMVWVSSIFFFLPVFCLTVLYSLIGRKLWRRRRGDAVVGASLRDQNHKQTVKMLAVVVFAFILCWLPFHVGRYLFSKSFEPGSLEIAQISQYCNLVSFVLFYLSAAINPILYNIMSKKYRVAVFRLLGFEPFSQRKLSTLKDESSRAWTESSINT
T2 sequence (Q92847 whole entry): as above

SMILES	EC50 [1] [nM]	IC50 [2, 3] [nM]	IC50 [2, 4] [nM]
C[C@H](NC(=O)Nc1ccc(S(=O)(=O)Nc2ccc(CC(C)(C)N)cc2)cc1)c1ccc(C#CC2CC2)c(Cl)c1Cl [H0907, (S)-N-(4-(2-amino-2-methylpropyl)phenyl)-4-(3-(1-(2,3-dichloro-4-(cyclopropylethynyl)phenyl)ethyl)ureido)benzenesulfonamide]	1610	23.5	
COc1ccc([C@H](C)NC(=O)Nc2ccc(S(=O)(=O)Nc3ccc(CCN)cc3)cc2)c(Cl)c1Cl [H0951, (S)-N-(4-(2-aminoethyl)phenyl)-4-(3-(1-(2,3-dichloro-4-methoxyphenyl)ethyl)ureido) benzenesulfonamide]	32.7	83.8	
Cc1ccc(CS(=O)(=O)c2ccc(NC(=O)N[C@@H](C)c3cccc(Cl)c3Cl)cc2)cc1 [H0964, (S)-1-(1-(2,3-dichlorophenyl)ethyl)-3-(4-((4-methylbenzyl)sulfonyl)phenyl)urea]	2480	4170	
C[C@H](NC(=O)Nc1ccc(S(=O)(=O)Nc2ccc3[nH]ccc3c2)cc1)c1cccc(Cl)c1Cl [H0991, (S)-4-(3-(1-(2,3-dichlorophenyl)ethyl)ureido)-N-(1H-indol-5-yl)benzenesulfonamide]	66.8	146	
CCNC(=O)Nc1ccc(S(=O)(=O)Nc2ccc(CC(C)(C)N)cc2)cc1 [H0994, N-(4-(2-amino-2-methylpropyl)phenyl)-4-(3-ethylureido)benzenesulfonamide]	1430		
C[C@H](NC(=O)Nc1ccc(S(=O)(=O)Nc2ccc3c(c2)CCNC3)cc1)c1ccc(-c2cnccn2)c(Cl)c1Cl [H1006, (S)-4-(3-(1-(2,3-dichloro-4-(pyrazin-2-yl)phenyl)ethyl)ureido)-N-(1,2,3,4-tetrahydroisoquinolin-6-yl)benzenesulfonamide]	36.9	72	
C[C@H](NC(=O)Nc1ccc(S(=O)(=O)Cc2ccc3c(c2)CCNC3)cc1)c1ccccc1 [H1028, (S)-1-(1-phenylethyl)-3-(4-(((1,2,3,4-tetrahydroisoquinolin-6-yl)methyl)sulfonyl)phenyl)urea]	234	414	
O=C(NCc1ccccc1)Nc1ccc(S(=O)(=O)Cc2ccc3c(c2)CCNC3)cc1 [H1029, 1-benzyl-3-(4-(((1,2,3,4-tetrahydroisoquinolin-6-yl)methyl)sulfonyl)phenyl)urea]	188	332	
COc1ccc([C@H](C)NC(=O)Nc2ccc(S(=O)(=O)Nc3ccc4c(c3)CCN(C(C)=O)C4)cc2)c(Cl)c1Cl [H1034, (S)-N-(2-acetyl-1,2,3,4-tetrahydroisoquinolin-6-yl)-4-(3-(1-(2,3-dichloro-4-methoxyphenyl)ethyl)ureido) benzenesulfonamide]	1610	1260	
O=C(NCc1cccc(Cl)c1)Nc1ccc(S(=O)(=O)Cc2ccc3c(c2)CCNC3)cc1 [H1038, 1-(3-chlorobenzyl)-3-(4-(((1,2,3,4-tetrahydroisoquinolin-6-yl)methyl)sulfonyl)phenyl)urea]	123	376	
O=C(NCc1cccc(Cl)c1Cl)Nc1ccc(S(=O)(=O)Cc2ccc3c(c2)CCNC3)cc1 [H1040, 1-(2,3-dichlorobenzyl)-3-(4-(((1,2,3,4-tetrahydroisoquinolin-6-yl)methyl)sulfonyl)phenyl)urea]	164	31.8	
CC(NC(=O)Nc1ccc(S(=O)(=O)Cc2ccc3c(c2)CCNC3)cc1)c1ccccc1Cl (centres unmarked) [H1041, 1-(1-(2-chlorophenyl)ethyl)-3-(4-(((1,2,3,4-tetrahydroisoquinolin-6-yl)methyl)sulfonyl)phenyl)urea]	55.5	17.4	
CC(NC(=O)Nc1ccc(S(=O)(=O)Cc2ccc3c(c2)CCNC3)cc1)c1cccc(Cl)c1 (centres unmarked) [H1042, 1-(1-(3-chlorophenyl)ethyl)-3-(4-(((1,2,3,4-tetrahydroisoquinolin-6-yl)methyl)sulfonyl)phenyl)urea]	122	36.6	
O=C(NCc1cccc(Cl)c1Cl)Nc1ccc(S(=O)(=O)Cc2ccc3c(c2)CNCC3)cc1 [H1044, 1-(2,3-dichlorobenzyl)-3-(4-(((1,2,3,4-tetrahydroisoquinolin-7-yl)methyl)sulfonyl)phenyl)urea]	143	53.1	
C[C@H](NC(=O)Nc1ccc(S(=O)(=O)Cc2ccc3c(c2)CCN3)cc1)c1cccc(Cl)c1Cl [H1047, (S)-1-(1-(2,3-dichlorophenyl)ethyl)-3-(4-((indolin-5-ylmethyl)sulfonyl)phenyl)urea]	1160	865	
C[C@H](NC(=O)Nc1ccc(S(=O)(=O)Nc2ccc3c(c2)CNCC3)cc1)c1cccc(Cl)c1Cl [H1049, (S)-4-(3-(1-(2,3-dichlorophenyl)ethyl)ureido)-N-(1,2,3,4-tetrahydroisoquinolin-7-yl)benzenesulfonamide]	29.6	16.3	
C[C@H](NC(=O)Nc1ccc(S(=O)(=O)Nc2ccc(CN)cc2)cc1)c1cccc(Cl)c1Cl [H1050, (S)-N-(4-(aminomethyl)phenyl)-4-(3-(1-(2,3-dichlorophenyl)ethyl)ureido) benzenesulfonamide]	109	57.4	
C[C@H](NC(=O)Nc1ccc(S(=O)(=O)Cc2ccc(CN)cc2)cc1)c1cccc(Cl)c1Cl [H1051, (S)-1-(4-((4-(aminomethyl)benzyl)sulfonyl)phenyl)-3-(1-(2,3-dichlorophenyl)ethyl)urea]	116	53.7	
CCOC(=O)N1CCc2cc(CS(=O)(=O)c3ccc(NC(=O)N[C@@H](C)c4cccc(Cl)c4Cl)cc3)ccc2C1 [H1055, ethyl (S)-6-(((4-(3-(1-(2,3-dichlorophenyl)ethyl)ureido)phenyl)sulfonyl)methyl)-3,4-dihydroisoquinoline-2(1H)-carboxylate]	516	4470	
COc1ccc(CS(=O)(=O)c2ccc(NC(=O)N[C@@H](C)c3cccc(Cl)c3Cl)cc2)cc1 [H1083, (S)-1-(1-(2,3-dichlorophenyl)ethyl)-3-(4-((4-methoxybenzyl)sulfonyl)phenyl)urea]	1180		
C[C@H](NC(=O)Nc1ccc(S(=O)(=O)Cc2ccc3c(c2)CCOC3)cc1)c1cccc(Cl)c1Cl [H1092, (S)-1-(1-(2,3-dichlorophenyl)ethyl)-3-(4-((isochroman-6-ylmethyl)sulfonyl)phenyl)urea]	578		
CCOc1ccc(Cl)c(C(=O)NC(=O)Nc2ccc(S(=O)(=O)Cc3ccc4c(c3)CNC4)cc2)c1 [H1251, 2-chloro-5-ethoxy-N-((4-((isoindolin-5-ylmethyl)sulfonyl)phenyl)carbamoyl)benzamide]		89.6	
CCOc1ccc(Cl)c(C(=O)NC(=O)Nc2ccc(S(=O)(=O)Nc3ccc4c(c3)CNC4)cc2)c1 [H1252, 2-chloro-5-ethoxy-N-((4-(N-(isoindolin-5-yl)sulfamoyl)phenyl)carbamoyl) benzamide]		440	
CCc1ccc(Cl)c(C(=O)NC(=O)Nc2ccc(S(=O)(=O)Cc3ccc(CC(C)(C)N)cc3)cc2)c1 [H1253, N-((4-((4-(2-amino-2-methylpropyl)benzyl)sulfonyl)phenyl)carbamoyl)-2-chloro-5-ethylbenzamide]		86.8	
CCc1ccc(Cl)c(C(=O)NC(=O)Nc2ccc(S(=O)(=O)Nc3ccc(CC(C)(C)N)cc3)cc2)c1 [H1254, N-((4-(N-(4-(2-amino-2-methylpropyl)phenyl)sulfamoyl)phenyl)carbamoyl)-2-chloro-5-ethylbenzamide]			17.2
CCc1ccc(Cl)c(C(=O)NC(=O)Nc2ccc(S(=O)(=O)Nc3ccc4c(c3)CNCC4)cc2)c1 [H1263, 2-chloro-5-ethyl-N-((4-(N-(1,2,3,4-tetrahydroisoquinolin-7-yl)sulfamoyl)phenyl)carbamoyl) benzamide]			246
C[C@H](NC(=O)Nc1ccc2c(c1)C=C(c1ccc3c(c1)CNC3)S2(=O)=O)c1ccccc1 [H1270, (S)-1-(2-(isoindolin-5-yl)-1,1-dioxidobenzo[b]thiophen-5-yl)-3-(1-phenylethyl)urea]			25.1
COc1ccc(C(C)NC(=O)Nc2ccc3c(c2)CC(c2ccc4c(c2)CNC4)S3(=O)=O)cc1 (centres unmarked) [H1297, 1-(2-(isoindolin-5-yl)-1,1-dioxido-2,3-dihydrobenzo[b]thiophen-5-yl)-3-(1-(4-methoxyphenyl)ethyl)urea]			23.1
CC(c1ccccc1)N1Cc2cc(S(=O)(=O)Cc3ccc4c(c3)CNC4)ccc2NC1=O (centres unmarked) [H1395, 6-((isoindolin-5-ylmethyl)sulfonyl)-3-(1-phenylethyl)-3,4-dihydroquinazolin-2(1H)-one]			68.9
